The test system of one data set is cowpox. The data set can be described thus: organism not typed. The format is cell-based. Conditions: Vero.
Data set [1] deals with HCV. The format is cell-based, Hepatitis C virus.
The subject of a further data set is N5A of HCV. The class given is cell-based, Hepatitis C virus. Conditions: 2.5 uM.
The test system of data set [2] is HBV. The data set can be described thus: HBV primary assay in HepG2 cells (virion DNA). The class given is cell-based, Hepatitis B virus. Conditions: blinded NIAID study.
In another data set the test system is PRRS virus. The data set is described as follows: PRRS inhibition in primary porcine lung alveolar macrophages. The format is cell-based, porcine reproductive and respiratory syndrome (PRRS) virus. Conditions: administration 72 hours post infection. The source says: As noted above, important mammalian hosts treatable by this family of compounds include not only humans, but veterinarily and commercially important animals. Although monkeys, dogs, cats, mice, rats, horses, rabbits, cattle, sheep and goats are all important hosts to be treated for viral infection, pigs may be the dominant commercial animal, worldwide. The United States Department of Agriculture has characterized PRRS virus as a significant, worldwide, agricultural concern related to animal health and causes large economic losses to producers, and labeled a biosecurity threat. (Project 2008-2017).

In data set [3] the test system is Venezuelan Equine Encephalomyelitis (VEE). The class given is cell-based. Conditions: 25 uM, administered 3 days post-infection.
Data set [4] deals with HBV. The data set is described as follows: Viral release assay, HBV from Huh1 cells. The format is cell-based, Hepatitis B virus.
The test system of a further data set is replicon formation. The format is cell-based.
Another data set is described as follows: Stability to light. The format is physicochemical. The text has this: R24 is subject to straight forward synthesis. […] The range of carriers available, is therefore, quite large. As a consequence, the compositions and methods of this invention embrace the FGI-104 compounds as neat solids, as pharmaceutically suitable preparations, in a pharmaceutically acceptable carrier of a variety of types. Compositions of the present invention may further comprise a pharmaceutical composition comprising a therapeutically effective amount of any of the small molecules (or combinations of small molecules) described above together with other materials, such as a suitable carrier, excipients, etc., for administration to a human or animal experiencing a viral infection or at risk of a viral infection. Such pharmaceutical compositions may be in solid, gel or liquid form and may be administered as appropriate to an individual IV, IM, IP or parenterally, topically, subcutaneously, orally, or through mucosal surfaces and routes (including, for example, rectal and vaginal suppositories). The exact dosage corresponding to a therapeutically effective amount will vary from mammal to mammal and virus to virus. […]

The conditions of data set [5]: 28 day course of administration; cited from earlier work.
The nature of another data set: in vitro. Conditions: African green monkey.
The conditions of data set [6]: mammalian models; oral, IP, IV administration; cited from earlier work.
The subject of data set [7] is HCV. The data set is described as follows: Viral release assay, HCV from Huh1 cells.
The next data set concerns HIV-1. The data set can be described thus: HIV-1 luciferase assay in infected MT-4 cells.
The test system of a further data set is malaria. Conditions: cited from earlier work.

Structures are written as SMILES.

Consider two compounds from patent US20120142731A1, “METHODS OF INHIBITING VIRAL INFECTION” (Functional Genetics, Inc., priority 2007, published 2012).

Consider `CC(C)(C)NCc1cc(Nc2ccnc3cc(Cl)ccc23)cc(-c2ccc(Cl)cc2)c1O` [Compound R24, 4′-chloro-5-[(7-chloro-4-quinolinyl)amino]-3-(1,1-dimethylethylamino)methyl [1,1′-biphenyl]-2-ol], for which the EC50 with cowpox turned out to be 0.25 µM; in the data set on HIV-1 (Human immunodeficiency virus 1, MT4, 72 h), 8.5 µM. Further, the “inhibition of the virus (luciferase signal)” value in the data set with HCV [1] is 100%. The “signal protein N5A of HCV in protein blot” value with N5A of HCV is recorded as “completely missing”. Moreover, the “activity as measured by virion DNA” value in the data set with HBV [2] is “high level of activity”. Besides, the “effectiveness as reflected by the EC90 value” in the data set on PRRS virus is recorded as “spectacular effectiveness”. Moreover, in data set [3], the “inhibition of VEE” value was “dramatic inhibition”. Also, the preventing viral release result with HBV [4] and in the data set on HCV [7] was “effective in preventing viral release” in each case. For the same compound, the “inhibition of replicon formation” value with replicon formation was “does little to inhibit replicon formation”. Further, the stability to light result in “Stability to light” is reported as “instability to light”. Besides, the chromosomal instability entry in data set [5] was “not to induce significant chromosomal instability”. Also, the CC50 in the data set “in vitro” is over 25 µM. For the same compound, in data set [6], the tolerability result is “well tolerated”. For the same compound, in the data set on HIV-1 (MT-4 cells, relatively low dose, 72 hours post infection), the luciferase detection result is reported as “effective zero”.
Turning to `CC(C)(C)NCc1cc(Nc2ccnc3cc(Cl)ccc23)cc(-c2ccc(Cl)cc2)c1O.Cl.Cl` [WR-228,258 2HCl, 4′-chloro-5-[(7-chloro-4-quinolinyl)amino]-3-(1,1-dimethylethylamino)methyl[1,1′-biphenyl]-2-ol dihydrochloride], the “efficacy against chloroquinoline-resistant malarial strains” value in the data set on malaria (chloroquinoline-resistant strains) is given as “not effective”. For the same compound, the “efficacy against the parasite based disease (malaria)” value in the data set with malaria (compared with chloroquinoline) is recorded as “effective against the parasite based disease at about the same level as the dominant treatment”. Besides, the tolerability entry in data set [6] is on record as “well tolerated”.

A word on the EC50: it is the concentration giving half of the maximal effect.
